In one test the target is T1, Acetylcholinesterase (Bos taurus, UniProt P23795).
T1 sequence (P23795 whole entry): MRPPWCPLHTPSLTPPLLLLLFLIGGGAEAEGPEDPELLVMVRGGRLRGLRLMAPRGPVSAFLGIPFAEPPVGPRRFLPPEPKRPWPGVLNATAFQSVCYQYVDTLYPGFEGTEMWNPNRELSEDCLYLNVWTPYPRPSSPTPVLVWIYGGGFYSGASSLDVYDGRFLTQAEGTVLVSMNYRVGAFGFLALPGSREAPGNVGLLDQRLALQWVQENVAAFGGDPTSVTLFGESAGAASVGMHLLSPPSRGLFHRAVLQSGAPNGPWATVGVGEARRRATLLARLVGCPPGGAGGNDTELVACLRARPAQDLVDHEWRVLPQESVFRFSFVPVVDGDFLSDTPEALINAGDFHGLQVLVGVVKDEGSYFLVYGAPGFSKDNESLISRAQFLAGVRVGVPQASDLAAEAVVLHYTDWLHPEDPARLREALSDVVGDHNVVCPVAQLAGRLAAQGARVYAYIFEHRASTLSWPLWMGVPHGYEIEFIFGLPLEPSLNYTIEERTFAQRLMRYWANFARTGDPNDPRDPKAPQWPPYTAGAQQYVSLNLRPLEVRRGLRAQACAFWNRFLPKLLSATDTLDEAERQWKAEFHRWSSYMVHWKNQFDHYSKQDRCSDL

Another test concerns the target Butyrylcholinesterase (Equus caballus, UniProt Q9N1N9).

The structures appear in SMILES notation. pKi: −log10 of the molar value. Where only a bound is given, the exact number is not on record here.

Data on 8 compounds can be found in ChEMBL document CHEMBL1134129, “Novel and potent tacrine-related hetero- and homobivalent ligands for acetylcholinesterase and butyrylcholinesterase” (Bioorg Med Chem Lett, 2001).

What is called pKi is the Ki on a negative log10 scale, so that one unit is a factor of ten.

Chain of Butyrylcholinesterase (Q9N1N9 whole entry): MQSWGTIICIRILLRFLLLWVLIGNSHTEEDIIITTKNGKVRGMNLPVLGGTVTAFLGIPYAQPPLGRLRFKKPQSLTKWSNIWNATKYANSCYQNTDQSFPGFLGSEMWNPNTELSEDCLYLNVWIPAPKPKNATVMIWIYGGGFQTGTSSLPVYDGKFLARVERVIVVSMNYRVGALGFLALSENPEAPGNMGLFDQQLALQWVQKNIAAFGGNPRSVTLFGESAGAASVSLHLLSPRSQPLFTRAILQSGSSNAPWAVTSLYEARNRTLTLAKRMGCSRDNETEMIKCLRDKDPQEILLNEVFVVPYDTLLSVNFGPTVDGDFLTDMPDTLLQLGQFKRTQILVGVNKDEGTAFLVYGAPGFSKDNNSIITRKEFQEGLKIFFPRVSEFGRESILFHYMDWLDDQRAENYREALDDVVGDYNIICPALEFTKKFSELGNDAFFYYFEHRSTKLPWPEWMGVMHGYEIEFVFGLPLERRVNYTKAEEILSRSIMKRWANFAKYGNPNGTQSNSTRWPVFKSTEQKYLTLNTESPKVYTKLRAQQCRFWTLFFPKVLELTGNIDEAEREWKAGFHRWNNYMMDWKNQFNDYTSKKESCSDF
Description for Acetylcholinesterase: Inhibition of acetylcholinesterase (AChE) of fetal bovine serum (FBS)
Description for Butyrylcholinesterase: Inhibition of equine (Eq) Butyrylcholinesterase

With `Clc1cc(Cl)c2nc3c(c(SCCCCCCCNc4c5c(nc6ccccc46)CCCC5)c2c1)CCCC3`, the pKi at Acetylcholinesterase was 6.54; on Butyrylcholinesterase it was 7.10. As for `c1ccc2c(NCCCCCCCNc3c4c(nc5ccccc35)CCCC4)c3c(nc2c1)CCCC3`, the negative logarithm of the Ki (pKi) on Butyrylcholinesterase was 8.70. Turning to `Nc1c2c(nc3cc(Cl)cc(Cl)c13)CCCC2`, the negative-log Ki (pKi) at Acetylcholinesterase is 9.00; at Butyrylcholinesterase, 7.30. For the compound `Clc1cc(Cl)c2c(NCCCCCCCSc3c4c(nc5ccccc35)CCCC4)c3c(nc2c1)CCCC3`, on Butyrylcholinesterase, the pKi was 6.60. Consider `Clc1cc(Cl)c2c(SCCCCCCNc3c4c(nc5ccccc35)CCCC4)c3c(nc2c1)CCCC3`, for which the pKi is 6.92 at Acetylcholinesterase and 7.35 at Butyrylcholinesterase.

Consider `c1ccc2c(NCCCCCCCSc3c4c(nc5ccccc35)CCCC4)c3c(nc2c1)CCCC3`, for which the negative-log Ki (pKi) on Acetylcholinesterase is 6.47; at Butyrylcholinesterase, 7.46. The corresponding values for `c1ccc2c(NCCCCSc3c4c(nc5ccccc35)CCCC4)c3c(nc2c1)CCCC3` are 6.19 and 7.40. Regarding `c1ccc2c(SCCCCCCCSc3c4c(nc5ccccc35)CCCC4)c3c(nc2c1)CCCC3`, the results for the pKi at Acetylcholinesterase and on Butyrylcholinesterase were under 5.00 and 6.42, respectively.
